This note sets out measurements from US11466047B2, “Cyclic di-nucleotide compounds as sting agonists” (Merck Sharp & Dohme Corp., priority 2017, dated 2022).

For one experiment, the target named is full-length WT STING (Homo sapiens (Human), UniProt Q86WV6, H232R). Kind of experiment: 3H-cGAMP filtration binding assay (WT STING). The settings on record: WT STING membrane. As to the method: The ability of compounds to bind STING is quantified by their ability to compete with tritiated cGAMP ligand for human STING receptor membrane using a radioactive filter-binding assay. The binding assay employs STING receptor obtained from Trichoplusia ni cell membranes (T.ni; Expression Systems, cat #94-002F, overexpressing full-length WT STING and tritiated cGAMP ligand.
Chain of full-length WT STING (Q86WV6 whole entry, looked up, stated change not applied): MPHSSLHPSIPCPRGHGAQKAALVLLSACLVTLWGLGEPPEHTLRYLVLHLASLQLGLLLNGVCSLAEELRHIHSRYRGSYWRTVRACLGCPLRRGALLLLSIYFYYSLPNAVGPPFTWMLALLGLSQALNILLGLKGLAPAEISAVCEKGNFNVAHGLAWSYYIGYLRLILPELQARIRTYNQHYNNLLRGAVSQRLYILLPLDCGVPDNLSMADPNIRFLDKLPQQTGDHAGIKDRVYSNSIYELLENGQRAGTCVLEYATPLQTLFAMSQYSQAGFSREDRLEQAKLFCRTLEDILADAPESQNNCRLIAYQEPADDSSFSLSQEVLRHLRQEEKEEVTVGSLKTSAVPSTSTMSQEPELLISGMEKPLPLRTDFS
The basic WT STING filtration assay protocol is as follows:
16 nM of [^3H] c-GAMP ligand was prepared by diluting into assay buffer, and 50 uL of this working stock was manually added to each well of the assay plate. After ligand addition, 2 uL of either titrated test compound, DMSO control (Sigma #276855), or cold cGAMP control was added to the appropriate wells using a BIOMEK FX. The serially titrated compound was prepared on a Hamilton STARPlus CORE in a 96-well plate (Greiner, #651201) using a 1:3 ten-point dose response format. Following compound addition, a 2.2 ug/ml working concentration of STING membrane (SEQ. ID. No. 3) was prepared by diluting concentrated membrane into assay buffer (1×PBS; Invitrogen #SH30028.02) and douncing 7× using a manual tissue homogenizer (Wheaton, #357546). 148 uL of this prepared membrane was then manually added to each well of a 96-well deep-well polypropylene plate (Fisher Scientific, #12-566-121). Compound, ligand, and membrane then incubated for 60 min at RT before the contents of each assay plate were filtered through a 96-well GF/B filter plate (PerkinElmer, #6005250) using a TOMTEC MACH III Cell Harvester equipped with 20 mM HEPES buffer (Fisher Scientific, #BP299500). The filter plates were then dried at 55° C. for 30 min using a pressurized VWR oven before 30 uL of ULTIMA GOLD F scintillate was added to each well. Tritium levels for each reaction well were then measured using a PerkinElmer TopCount plate reader.
(§1) After normalization to controls, the percent activity for each compound concentration was calculated by measuring the amount of remaining radioactivity. The plot of percent activity versus the log of compound concentration was fit with a 4-parameter dose response equation to calculate EC50 values.

The target in a further experiment is full-length HAQ STING (Homo sapiens (Human), UniProt Q86WV6, G230A/H232R/R293Q/R71H). Kind of experiment: 3H-cGAMP filtration binding assay (HAQ STING). The settings on record: competition with tritiated cGAMP ligand, HAQ STING membrane.
Chain of full-length HAQ STING (Q86WV6 whole entry, looked up, stated change not applied): as above
Description: The ability of compounds to bind STING is quantified by the ability to compete with tritiated cGAMP ligand for human STING receptor membrane using a radioactive filter-binding assay. The binding assay employs STING receptor obtained from Hi-Five cell membranes overexpressing full-length HAQ STING prepared in-house and tritiated cGAMP ligand also purified in-house.
The ability of compounds to bind STING is quantified by their ability to compete with tritiated cGAMP ligand for human STING receptor membrane using a radioactive filter-binding assay. The binding assay employs STING receptor obtained from Trichoplusia ni cell membranes (T.ni; Expression Systems, cat #94-002F, www.expressionsystems.com) overexpressing full-length HAQ STING and tritiated cGAMP ligand.
The basic HAQ STING filtration assay protocol is as follows:
The compounds were serially titrated by the Hamilton STARPlus CORE in a 96-well plate (Greiner, #651201) using a 1:3 ten-point dose response format. After compound preparation, a 2.2 ug/ml working concentration of STING membrane (SEQ. ID. No. 1) was prepared by diluting concentrated membrane into assay buffer (lx PBS; Invitrogen #SH30028.02) and douncing 7× using a manual tissue homogenizer (Wheaton, #357546). 148 uL of prepared membrane was then manually added to each well of a 96-well deep-well polypropylene plate (Fisher Scientific, #12-566-121). Following membrane addition, 2 uL of either titrated test compound, DMSO control (Sigma #276855), or cold cGAMP control was added to the appropriate wells using a BIOMEK FX. Compound and membrane then preincubated for 60 min at RT to allow compound binding to equilibrate. Following equilibration, 8 nM of [^3H]c-GAMP ligand was prepared by diluting into assay buffer, and 50 uL of this working stock was then manually added to each well of the assay plate. Plates were then incubated at RT for 60 min, and the contents of each assay plate were then filtered through a 96-well GF/B filter plate (PerkinElmer, #6005250) using a TOMTEC MACH III Cell Harvester equipped with 20 mM HEPES buffer (Fisher Scientific, #BP299500). The filter plates were then dried at 55° C. for 30 min using a pressurized oven before 30 uL of ULTIMA GOLD F scintillate was added to each well. Tritium levels for each reaction well were then measured using a PerkinElmer TopCount plate reader.
as §1

A further experiment has as its system THP1 cells. Nature of the experiment: IFN-β secretion in THP1 cell culture (5 h). It is filed as cell-based, human. The settings on record: 30 μM compound, relative to 2′3′-cGAMP at 30 μM; for activation at 30 µM: Homo sapiens, THP-1, 5 h, read-out: % Effect at 30 μM relative to 2′3′-cGAMP. As to the method: The ability of compounds to stimulate the secretion of interferon-beta from THP1 cells was measured using a human IFN-β AlphaLISA kit (Perkin Elmer, Cat. No. AL265F). The basic protocol is as follows:
A Labcyte Echo 550 acoustic dispenser was used to transfer 120 nL of compound dissolved in DMSO into the wells of an empty, sterile 384-well microplate, (Corning, Cat. No. 3712). THP1 cells (American Type Culture Collection, Cat. No. TIB202) previously frozen in Recovery Medium (Life Technologies, Cat. No. 12648-010) were thawed and immediately diluted 10-fold into 37° C. assay medium (RPMI 1640+L-Glutamine & phenol red, Life Technologies, Cat. No. 11875-085; 0.5% heat inactivated fetal bovine serum, Sigma Aldrich, Cat. No. F4135; 1 mM Sodium Pyruvate, Life Technologies, Cat. No. 11360-070; lx non-essential amino acids; Life Technologies, Cat. No. 11140-050). The cell viability and count was ascertained using a Beckman Coulter V-Cell XR cell counter. The cell suspension was centrifuged at 200×g for 5 min at RT. Cells were resuspended to a density of 0.8×10^6/mL in 37° C. assay medium. Subsequent liquid transfers were performed using either a Matrix electronic multichannel pipette or an Agilent Bravo Automated Liquid Handling Platform.
The assay was started by dispensing 40 μL of the previously prepared cell suspension into the wells of the plate containing compounds. After 5 h incubation at 37° C., 5% CO2 in a humidified atmosphere, the plate of cells and compounds was centrifuged at 200×g for 5 min at RT. From each well, 5 μL of supernatant was transferred into corresponding wells of a white 384-well plate (Perkin Elmer, Cat. No. 6005620). To these supernatant-containing wells was added 10 μL of 5× Anti-Analyte Acceptor beads (50 μg/mL of AlphaLISA HiBlock Buffer) and incubated for 30 min at RT while shaking on an orbital plate shaker. To each well was added 10 μL of 5× Biotinylated Antibody Anti-analyte (5 nM in AlphaLISA HiBlock Buffer) and incubated on an orbital plate shaker for 60 min at RT or overnight at 4° C. To each well was added 25 μL of 2×SA-Donor beads (80 μg/mL in AlphaLISA HiBlock Buffer) and incubated for 30-45 min at RT in the dark while shaking on an orbital plate shaker. The plate was then read on a Perkin Elmer Envision (λex=680 nm, λem=570 nm). The percent effect of the AlphaLISA signal at each compound concentration was calculated based on 30 uM cGAMP positive controls and 0.3% DMSO negative controls. The plot of percent effect versus the log of compound concentration was fit with a 4-parameter concentration response equation to calculate EC50 values. The test compounds were tested at concentrations 30000, 10000, 3333, 1111, 370.4, 123.4, 41.2, 13.7, 4.6, and 1.5 nM with 0.3% residual DMSO. The control compound, cGAMP was tested at concentrations 100000, 33333, 11111, 3704, 1235, 412, 137, 46, and 15 nM with 0.3% residual DMSO.
Compounds of the disclosure were evaluated for IFN-β secretion in THP1 cell culture as described above. The following table tabulates the biological data for these compounds as percent activation relative to 2′3′-cGAMP at the 30 μM concentration.

The mark [1] stands for this setting: EC50, competition with tritiated cGAMP ligand.
Where [2] appears, read: competition with tritiated cGAMP ligand, read-out: EC50.

The structures appear in SMILES notation. Like-named read-outs stand apart in the source and are kept apart here.

As for `Nc1nc2c(ncn2[C@@H]2O[C@@H]3COP(=S)(S)O[C@H]4[C@H](F)[C@H](n5cnc6c(N)ncnc65)O[C@@H]4COP(O)(=S)O[C@@H]2[C@@H]3F)c(=O)[nH]1` (single isomer, unassigned) [Example 1], the EC50 at full-length WT STING (setting [1]) and on full-length HAQ STING was less than 1 nM each time. For the same compound, the activation at 30 µM in the experiment with THP1 cells came to 165%.
`Nc1nc2c(ncn2[C@@H]2O[C@@H]3COP(=S)(S)O[C@H]4[C@H](F)[C@H](n5cnc6c(N)ncnc65)O[C@@H]4COP(O)(=S)O[C@@H]2[C@@H]3F)c(=O)[nH]1` (single isomer, unassigned) [Example 2]: the results for the EC50 at full-length WT STING (setting [1]) and at full-length HAQ STING were 9 nM and 2 nM, respectively. For the same compound, the “% Effect at 30 μM relative to 2′3′-cGAMP” value with THP1 cells is given as 175%.
Take `Nc1nc2c(ncn2[C@@H]2O[C@@H]3COP(=S)(S)O[C@H]4C[C@H](n5cnc6c(N)ncnc65)O[C@@H]4COP(O)(=S)O[C@@H]2C3)c(=O)[nH]1` (single isomer, unassigned) [Example 3]: the EC50 on full-length WT STING (setting [2]) is 4 nM; at full-length HAQ STING, 2 nM. Also, in the experiment on THP1 cells, the activation at 30 µM is 128%.
Turning to `Nc1nc2c(ncn2[C@@H]2O[C@@H]3COP(=S)(S)O[C@H]4C[C@H](n5ccc6c(N)ncnc65)O[C@@H]4COP(O)(=S)O[C@@H]2C3)c(=O)[nH]1` (single isomer, unassigned) [Example 5], the EC50 at full-length WT STING (setting [2]) was 8 nM; at full-length HAQ STING it was less than 1 nM. In the experiment on THP1 cells, the activation at 30 µM turned out to be 95%.
With `Nc1nc2c(ncn2[C@@H]2O[C@@H]3COP(=S)(S)O[C@H]4C[C@H](n5ccc6c(N)ncnc65)O[C@@H]4COP(O)(=S)O[C@@H]2C3)c(=O)[nH]1` (single isomer, unassigned) [Example 6], the EC50 is 115 nM at full-length WT STING (setting [2]) and 28 nM on full-length HAQ STING. Further, in the experiment with THP1 cells, the “% Effect at 30 μM relative to 2′3′-cGAMP” value is recorded as 91%.
For `Nc1nc2c(ncn2[C@@H]2O[C@@H]3COP(=S)(S)O[C@H]4C[C@H](c5cnc6c(N)ncnn56)O[C@@H]4COP(O)(=S)O[C@@H]2C3)c(=O)[nH]1` (single isomer, unassigned) [Example 7] the same measures were less than 1 nM, less than 1 nM and 173%.
Consider `Nc1nc2c(ncn2[C@@H]2O[C@@H]3COP(=S)(S)O[C@H]4C[C@H](c5cnc6c(N)ncnn56)O[C@@H]4COP(O)(=S)O[C@@H]2C3)c(=O)[nH]1` (single isomer, unassigned) [Example 8], for which the EC50 at full-length WT STING (setting [2]) was 13 nM; on full-length HAQ STING, 7 nM. Also, the “% Effect at 30 μM relative to 2′3′-cGAMP” value in the experiment on THP1 cells is listed as 110%.
Regarding `Nc1nc2c(ncn2[C@@H]2O[C@@H]3COP(=S)(S)O[C@H]4[C@H]5OC[C@]4(COP(=O)(O)O[C@@H]2[C@H]3F)O[C@H]5n2cnc3c(N)ncnc32)c(=O)[nH]1` (stereo partly drawn) [Example 17, 2-amino-9-[(5R,7R,8S,12aR,14R,15R,15aS,18S)-14-(6-amino-9H-purin-9-yl)-18-fluoro-10-hydroxy-10-oxido-2-sulfanyl-2-sulfidohexahydro-14H-15,12a-(epoxymethano)-5,8-methanofuro[3,2-l][1,3,6,9,11,2,10]pentaoxadiphosphacyclotetradecin-7(12H)-yl]-1,9-dihydro-6H-purin-6-one], the EC50 at full-length HAQ STING worked out at 15 nM. Further, the activation at 30 µM with THP1 cells was determined as 145%.
Consider `Nc1nc2c(ncn2[C@@H]2O[C@@H]3COP(O)(=S)O[C@H]4C[C@H](n5cnc6c(=O)[nH]cnc65)O[C@@H]4COP(=S)(S)O[C@@H]2C3)c(=O)[nH]1` (stereo partly drawn) [Example 26, 2-amino-9-[(5S,7R,8R,12aR,14R,15aS)-2-hydroxy-14-(6-oxo-1,6-dihydro-9H-purin-9-yl)-10-sulfanyl-2,10-disulfidooctahydro-12H-5,8-methanofuro[3,2-1][1,3,6,9,11,2,10]pentaoxadiphosphacyclotetradecin-7-yl]-1,9-dihydro-6H-purin-6-one], for which, on full-length WT STING (setting [2]), the EC50 was found to be 409 nM. Also, in the experiment with THP1 cells, the activation at 30 µM is 75%.

The EC50 is the concentration at which the effect is half-maximal.
